From patent EP0378317A2, “Microbial transformation product of L-679,934” (Merck & Co., Inc., priority 1989, dated 1990) come the findings set out here.

Entries after “also recorded” stand apart in the source; their conditions may differ. Like-named read-outs stand apart in the source and are kept apart here.

Data set [1] deals with mouse T lymphocytes. Kind of data set: T-cell proliferation assay (ionomycin plus PMA induced T-cell stimulation, tritiated thymidine uptake). In kind it is cell-based. To be noted: for IC50: read-out: IC₅₀. As for the experimental part: The principle of this assay is to measure the proliferation of mouse T lymphocytes stimulated with the combination of ionomycin plus PMA. A positive sample in this assay will inhibit T-cell proliferation, as indicated by reduced tritiated thymidine uptake. […] Cells were pelleted by centrifugation at 1500 rpm for 8 minutes. Contaminating red cells were removed by treating the pellet with ammonium chloride lysing buffer (GIBCO) for 2 minutes at 4°C. Cold medium was added and cells were again centrifuged at 1500 rpm for 8 minutes. T lymphocytes were then isolated by separation of the cell suspension on nylon wool columns as follows: Nylon wool columns were prepared by packing approximately 4 grams of washed and dried nylon wool into 20 ml plastic syringes. The columns were sterilized by autoclaving at 250°F for 30 minutes. Nylon wool columns were wetted with warm (37°C) culture medium and rinsed with the same medium. Washed spleen cells resuspended in warm medium were slowly applied to the nylon wool. The columns were then incubated in an upright position at 37°C for 1 hour. Non-adherent T lymphocytes were eluted from the columns with warm culture medium and the cell suspensions were spun as above. […] The cell suspension was immediately distributed into 96 well flat-bottom microculture plates (Costar) at 200 µl/well. […] The proliferation of T lymphocytes was assessed by measurement of tritiated thymidine incorporation. After 44 hours of culturing, the cells were pulse-labelled with 2 µCi/well of tritiated thymidine (NEN, Cambridge, MA). After another 4 hours of incubation, cultures were harvested on glass fiber filters using a multiple sample harvester. Radioactivity of filter discs corresponding to individual wells was measured by standard liquid scintillation counting methods (Betacounter). Mean counts per minute of replicate wells were calculated and the results expressed as percent inhibition of tritiated thymidine uptake (proliferation) as follows: [formula]

A short description of data set [2]: Physical characteristics of the fermentation product. It counts as physicochemical. To be noted: methanol. The source says:
White amorphous powder • 2. […] Molecular weight of 789, as determined by FAB mass spectroscopy and is consistent with the assigned molecular structure in Figure 1.

As to `C=CC[C@@H]1/C=C(\C)C[C@H](C)C[C@H](OC)[C@H]2O[C@@](O)(C(=O)C(=O)N3CCCC[C@H]3C(=O)O[C@H](/C(C)=C/[C@@H]3CC[C@@H](O)[C@H](OC)C3)[C@H](C)[C@@H](O)CC1=O)[C@H](C)C[C@@H]2OC` [L-679,934], the inhibition (commonly how much of the control response was suppressed) at 0.01 µg/mL in data set [1] (Mus musculus, T-lymphocyte, 48 h) turned out to be 99%.
`C=CCC1C=C(C)CC(C)CC(OC)C(O)C2CC(C)C(O)(O2)C(=O)C(=O)N2CCCCC2C(=O)OC(C(C)=CC2CCC(O)C(OC)C2)C(C)C(O)CC1=O` [L-683,519]: the Solubility result in data set [2] is reported as “Solubility in methanol”. Besides, the IC50 in data set [1] (Mus musculus, T-lymphocyte, inhibition of T-cell proliferation, this experiment, same value in molar terms) is 2.2 nM; in data set [1] (Mus musculus, T-lymphocyte, inhibition of T-cell proliferation, this experiment), 1.7 ng/mL; in data set [1] (Mus musculus, T-lymphocyte, range generally found) it was 2 to 4 nM. Further, the inhibition at 0.00058 µg/mL in data set [1] (Mus musculus, T-lymphocyte, L-683,519 0.58 ng/ml, harvest at 48 hours) worked out at 0%. Besides, the inhibition at 0.00087 µg/mL in data set [1] (Mus musculus, T-lymphocyte, L-683,519 0.87 ng/ml, harvest at 48 hours) worked out at 0%. The inhibition at 0.0013 µg/mL in data set [1] (Mus musculus, T-lymphocyte, L-683,519 1.3 ng/ml, harvest at 48 hours) is 30%. In addition, in data set [1] (Mus musculus, T-lymphocyte, L-683,519 1.9 ng/ml, harvest at 48 hours), the inhibition at 0.0019 µg/mL is 57%. In addition, the inhibition at 0.0029 µg/mL in data set [1] (Mus musculus, T-lymphocyte, L-683,519 2.9 ng/ml, harvest at 48 hours) was found to be 81%. Besides, in data set [1] (Mus musculus, T-lymphocyte, L-683,519 4.4 ng/ml, harvest at 48 hours), the inhibition at 0.0044 µg/mL came to 93%. In addition, the inhibition at 0.0066 µg/mL in data set [1] (Mus musculus, T-lymphocyte, L-683,519 6.6 ng/ml, harvest at 48 hours) is 97%. In addition, the inhibition at 0.0099 µg/mL in data set [1] (Mus musculus, T-lymphocyte, L-683,519 9.9 ng/ml, harvest at 48 hours) came out at 99%. Besides, in data set [1] (Mus musculus, T-lymphocyte, L-683,519 15.0 ng/ml, harvest at 48 hours), the inhibition at 0.015 µg/mL came to 99%. In addition, the inhibition at 0.022 µg/mL in data set [1] (Mus musculus, T-lymphocyte, L-683,519 22.0 ng/ml, harvest at 48 hours) came to 99%. Moreover, the inhibition at 0.033 µg/mL in data set [1] (Mus musculus, T-lymphocyte, L-683,519 33.0 ng/ml, harvest at 48 hours) is 99%. In addition, in data set [1] (Mus musculus, T-lymphocyte, L-683,519 50.0 ng/ml, ionomycin 250 ng/ml + PMA 10 ng/ml, ³H-thymidine pulse 4 hours, harvest at 48 hours), the inhibition at 0.05 µg/mL worked out at 99%. Moreover, the “Inhibition of proliferation after addition of IL-2” value in data set [1] (addition of 50 units/ml. of recombinant human IL-2) was 4. Inhibition of proliferation was reversed by the addition of 50 units/ml. of recombinant human IL-2. The “inhibition of T-cell activation (immunosuppressive activity)” value in data set [1] (result in words) was “positive inhibition of T-cell activation; also recorded: positive immunosuppressive activity”.
